Data published in patent publication US20250241931A1, “METHODS OF TREATING A SUBJECT HAVING CLINICALLY SIGNIFICANT SIGNS AND SYMPTOMS ASSOCIATED WITH BLOOD CELL DIFFERENTIATION” (FOGHORN THERAPEUTICS INC., priority 2022, published 2025).

Test system: subjects with advanced hematologic malignancies (R/R AML or MDS)
Test: ascending multiple dose escalation clinical trial (safety and tolerability, oral administration)
Type: in vivo, human
Settings: ongoing study
Protocol: An ascending multiple dose escalation clinical trial of the compound shown below is conducted. It is primarily intended to evaluate the safety and tolerability of the compound shown below when administered orally to subjects with advanced hematologic malignancies, specifically relapsed or refractory acute myeloid leukemia (R/R AML) or myelodysplastic syndrome (MDS).
In this ongoing study, clinically significant signs and symptoms associated with blood cell differentiation have been reported for one of 21 subjects with acute myeloid leukemia treated with the compound shown above. This occurred approximately 7-14 days into the treatment with the compound shown above.

In the case of COC[C@H](NC(=O)c1ccn(S(C)(=O)=O)c1)C(=O)Nc1nc(-c2cccc(N3C[C@@H](C)O[C@@H](C)C3)n2)cs1, the “subjects with clinically significant signs and symptoms associated with blood cell differentiation” value (subjects with acute myeloid leukemia treated orally with the compound) is reported as “one of 21” and the “time of occurrence of the clinically significant signs and symptoms associated with blood cell differentiation, into the treatment” value (the one affected subject with acute myeloid leukemia) is reported as 7 to 14 days.
